Measurements as given in PMC9820345, “Metal Complexes of a 5-Nitro-8-Hydroxyquinoline-Proline Hybrid with Enhanced Water Solubility Targeting Multidrug Resistant Cancer Cells” (International Journal of Molecular Sciences, 2022).

Experiments:
[1] = Formation constants of Fe(II) complexes by UV-vis spectrophotometric titrations; format: physicochemical; settings: I = 0.1 M KCl, 25.0 °C
Protocol: UV-vis titrations were performed to determine the formation (overall stability) constants (β) for the complexes of HQNO2-L-Pro formed with Fe(III) and Fe(II) ions (Figures S10 and S11). In the latter case, titrations were performed in a laboratory glove box. The calculations were complicated by the overlapping feature of the ligand bands and the charge transfer bands of the complexes. Based on the absorption spectra Figures S10a and S11a), formation of mono, bis, and tris complexes were found in both chemical systems; obtained constants are collected in Table 2. […] Based on the concentration distribution diagrams (see Figure S10b for Fe(III) and Figure S11b for Fe(II)), it can be concluded that the tris complexes are the dominant species at pH 7.4 in the case of Fe(III), while with Fe(II) both tris and bis-ligand species are formed under the conditions of the titrations.
(§1) An Agilent Cary 8454 diode array spectrophotometer (Santa Clara, CA, USA) was used to obtain UV-vis spectra in the wavelength range 200–1000 nm, while spectra were recorded for the Fe(II)-containing samples using an Avantes (Avantes B.V., Apeldoorn, The Nederlands) AvaSpec-ULS2048CL-EVO spectrometer with an AvaLight-DHc light source and FDP-7UVIR200-2-VAR transmission dip probe. The titrations for the Fe(II)-containing samples were performed in a laboratory glove box (GP(Campus), Jacomex) (O2 content ≤ 1 ppm). The path length (ℓ) was 1 cm in most cases (the actual ℓ is always indicated in the legends of the figures). The concentrations of the ligands and complexes were between 40 and 200 µM, and 0.2 M KNO3 for the organometallic complexes or 0.1 M KCl for the Fe(II/III), Cu(II), and Zn(II) complexes were used to adjust the constant ionic strength. For HSA containing samples, complex concentrations were 50 µM, and 0.5, and 2 equiv. biomolecules were added for kinetic studies, respectively. For HSA model containing samples, complex concentrations were 50 µM, and the model concentrations were 0–150 µM and 0–500 µM, respectively, and the pH was 7.4 (PBS’). Spectra were always background and baseline corrected. The computer program HypSpec was used to obtain stability constants. Hydrolysis constants of the Fe(III), Fe(II), RuCym, and RhCp* species were included in the speciation models (see Table S4 with the data taken from References).

[2] = Formation constants of Cu(II) complexes by UV-vis spectrophotometric titrations; format: physicochemical; settings: I = 0.1 M KCl, 25.0 °C
Protocol: as §1

OATP2B1 = biological target: T1, OATP2B1 (Homo sapiens, UniProt O94956); assay: OATP uptake assay, OATP2B1; format: cell-based; settings: human, 20 μM
T1 construct: expressed in transfected cells; host or cells: A431 epidermoid carcinoma cells
T1 sequence (O94956 1-709): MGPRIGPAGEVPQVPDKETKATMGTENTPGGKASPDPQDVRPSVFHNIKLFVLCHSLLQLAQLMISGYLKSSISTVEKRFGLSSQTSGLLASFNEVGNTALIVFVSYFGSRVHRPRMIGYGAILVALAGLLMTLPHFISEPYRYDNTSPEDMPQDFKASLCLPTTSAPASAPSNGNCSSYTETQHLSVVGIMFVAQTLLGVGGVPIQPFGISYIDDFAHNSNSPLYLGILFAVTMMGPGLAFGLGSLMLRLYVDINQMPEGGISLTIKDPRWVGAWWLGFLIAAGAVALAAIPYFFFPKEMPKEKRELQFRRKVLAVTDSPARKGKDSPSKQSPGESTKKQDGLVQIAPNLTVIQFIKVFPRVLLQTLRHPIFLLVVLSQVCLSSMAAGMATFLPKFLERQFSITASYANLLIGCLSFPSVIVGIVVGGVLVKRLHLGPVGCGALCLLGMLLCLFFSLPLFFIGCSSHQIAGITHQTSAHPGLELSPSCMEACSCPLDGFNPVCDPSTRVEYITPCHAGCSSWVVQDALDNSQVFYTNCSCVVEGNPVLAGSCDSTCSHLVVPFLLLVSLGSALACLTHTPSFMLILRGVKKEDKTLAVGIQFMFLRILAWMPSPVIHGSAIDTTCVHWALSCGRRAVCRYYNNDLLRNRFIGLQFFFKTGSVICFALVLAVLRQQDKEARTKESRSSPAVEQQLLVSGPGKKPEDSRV
Protocol: Cell lines: A431 cells overexpressing OATP1B1 or OATP2B1, and their mock transfected controls were generated and characterized previously. The cell lines were cultured in DMEM (Gibco, Thermofisher Scientific, Waltham, MA, USA), supplemented with 10% fetal bovine serum, 2 mM L-glutamine, 100 μg/mL streptomycin, and 100 units/mL penicillin at 37 °C and 5% CO2.
OATP uptake assay: Prior to the experiment, A431 cells (8 × 10^4/well) were seeded on 96-well plates in 200 μL cell culture medium. After 16–24 h, the cells were washed with 200 μL PBS, three times and pre-incubated with 20–200 μM HQNO2-L-Pro, or buffer without HQNO2-L-Pro for 5 min at 37 °C in 50 μL HBSS (Hank’s Balanced Salt Solution, pH 7.4; OATP1B1) or uptake buffer (pH 5.5; OATP2B1 [63]). The reaction was started by the addition of disulfopyrene (6,8-dihydroxy-1,3-pyrenedisulfonic acid disodium salt, Sigma, Darmstadt, Germany) at a final concentration of 10 μM (OATP1B1) or pyranine (8-hydroxypyrene-1,3-pyrenetrisulfonic acid trisodium salt, Sigma, Darmstadt, Germany) at a final concentration of 20 μM (OATP2B1), and the cells were further incubated at 37 °C for 10 min (OATP1B1) or 15 min (OATP2B1). The reaction was stopped by removing the supernatant after which the cells were washed three times with ice-cold PBS. Fluorescence (in 200 μL PBS) was determined using an Enspire plate reader (PerkinElmer, Waltham, MA, USA) with excitation/emission wavelengths of 460/510 nm. OATP-dependent transport was calculated by subtracting fluorescence measured in mock transfected cells. Transport activity was calculated based on the fluorescence signal in the absence (100%) of HQNO2-L-Pro. Experiments were repeated in at least three biological replicates.

[3] = n-Octanol/water distribution coefficients, shake-flask method; format: physicochemical; settings: pH 7.40 (20 mM phosphate buffer); 100 mM chloride; 25.0 °C
Protocol: The traditional shake-flask method was used to obtain distribution coefficients of the ligands as well as of the complexes in n-octanol/buffered aqueous solution (20 mM phosphate, pH = 7.40 or 10 mM MES, pH 5.50) at different chloride ion concentrations (4, 24 and 100 mM) using UV-vis spectrophotometry (Agilent Cary 8454 diode array spectrophotometer, Santa Clara, CA, USA) for the analysis. The measurement and data evaluation were performed as described in our former work.

Row | logβ [M(HL)2] [1] | logβ [M(HL)3] [1] | logβ [M(HL)] [1] | logβ [M(L)] [1] | logβ [M(HL)2] [2] | logβ [M(HL)(L)] [2] | logβ [M(HL)] [2] | logβ [M(L)2] [2] | logβ [M(L)] [2] | activity at 15 min, 10 µM (OATP2B1; A431 cells overexpressing OATP2B1, pH 5.5, probe pyranine, 10 μM, absence of compound = 100%, n = 3, ± SD, read-out: transport activity % OATP2B1) [%] | activity at 15 min, 100 µM (OATP2B1; A431 cells overexpressing OATP2B1, pH 5.5, probe pyranine, 100 μM, absence of compound = 100%, n = 3, ± SD, read-out: transport activity % OATP2B1) [%] | inhibition at 15 min, 100 µM (OATP2B1; probe pyranine, at 100 μM, A431 cells overexpressing OATP2B1, pH 5.5, read-out: inhibition of OATP2B1 function) [%] | SMILES | log D7.4 [3]
1 | 32.74 ± 0.03 | 47.60 ± 0.06 | 16.52 ± 0.03 | 8.39 ± 0.03 | 38.60 ± 0.03 | 31.75 ± 0.03 | 19.40 ± 0.03 | 22.99 ± 0.03 | 14.45 ± 0.03 | 98.2 ± 5.5 | 83.3 ± 9.7 | < 20 | O=C(O)[C@@H]1CCCN1Cc1cc([N+](=O)[O-])c2cccnc2c1O [HQNO2-L-Pro, (2S)-1-((8-hydroxy-5-nitroquinolin-7-yl)methyl)pyrrolidin-1-ium-2-carboxylate] | –
2 | – | – | – | – | – | – | – | – | – | – | – | – | Cc1ccc(C(C)C)cc1.O=C(O)[C@@H]1CCC[NH+]1Cc1cc([N+](=O)[O-])c2ccc[n+]3c2c1[O][Ru-]3[Cl].[Cl-] [RuCym-HQNO2-L-Pro, [RuCym(HQNO2-L-Pro)Cl]Cl] | +0.06 ± 0.01
